How the values were obtained:
brain [1] = assay: Maturation of TTM-002 capsid, NGS enrichment in brain of CD-1 Outbred mice; assay type: in vivo; details: NGS fold-enrichment in the brain of CD-1 Outbred mice; intravenous, 1.0×10^12 VG/dose, 14 days; RNA; relative to non-matured TTM-002 control
From the text: This Example describes maturation of the TTM-001 (SEQ ID NO: 981 (amino acid) and 983 (DNA), comprising SEQ ID NO: 941) and TTM-002 (SEQ ID NO: 982 (amino acid) and 984 (DNA), comprising SEQ ID NO: 2) capsid variants to further enhance their transduction and biodistribution in the central nervous system and evolve the AAV capsid variants to provide further cross-species compatibility. Two approaches were used to mature the TTM-001 and TTM-002 capsid sequences in order to randomize and mutate within and around the peptide insert comprised within loop IV of the capsid variant. […] In the first maturation approach, sets of three contiguous amino acids were randomized across the mutagenesis region in the TTM-001 and TTM-002 sequences, which spanned from position 450 to position 466, numbered according to SEQ ID NO: 981 and 982. In the second maturation approach, mutagenic primers were used to introduce point mutations at a low frequency, scattered across the mutagenesis region in the TTM-001 and TTM-002 sequences ranging from position 449 to position 466, numbered according to SEQ ID NO: 981 and 982. AAV capsid variants arising from each maturation approach for TTM-001 were pooled together and AAV capsid variants arising from each maturation approach for TTM-002 were also pooled together, for subsequent testing and characterization in mice.
The library of pooled matured AAV capsid variants generated from TTM-001 or library of pooled matured AAV capsid variants generated from the TTM-002 matured AAV capsid variant each were intravenously injected into the tail vein of three female CD-1 Outbred mice (Charles River) at a dose of 1.0×10^12 VG/dose. After 14-days in life, the brains of the mice were isolated and RNA was extracted. Following RNA recovery and RT-PCR amplification, a systematic NGS enrichment analysis was performed to calculate the fold enrichment ratio relative to the corresponding TTM-001 or TTM-002 control, and the peptides comprised within the variants were identified. The data for the TTM-001 matured capsid variants is provided in Table 13 and the data for the TTM-002 matured capsid variants is provided in Table 14.

[2] = tested on: brains, heart, liver, muscle, and DRG of the NHPs; assay: Maturation of TTM-001 and TTM-002 capsids, NGS enrichment in NHP tissues; assay type: in vivo; details: relative to AAV9 control
How it was run: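 Variants carry mutations within and flanking the loop IV peptide insert: positions 450–466 were triplet-randomized, while positions 449–466 received low-frequency point mutations. The combined pool went into two NHPs, and each peptide was scored by NGS enrichment ratio against AAV9.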

brain [3] = assay: Matured TTM-001 and TTM-002 variants, NGS enrichment in mouse brain; assay type: in vivo, mice; details: relative to AAV9 control
[4] = NGS fold-enrichment of RNA, NHP brain
[5] = NGS fold-enrichment, DRG of NHPs
[6] = NGS fold-enrichment, NHP liver DNA
[7] = NGS fold-enrichment, NHP liver RNA
[8] = NGS fold-enrichment, NHP muscle
[9] = NGS fold-enrichment, RNA, brain of NHPs
[10] = NGS fold-enrichment, heart of NHPs
[11] = NGS fold-enrichment, liver DNA of NHPs
[12] = NGS fold-enrichment, liver RNA of NHPs
[13] = NGS fold-enrichment, muscle of NHPs
[14] = NGS fold-enrichment, brain of mice
[15] = NGS fold-enrichment, mouse brain
[16] = NGS fold-enrichment of matured AAV capsid variants, NHP brain, RNA

Sequence	Fold Enrichment relative to AAV9, Brain (NHP) [2, 4] [fold]	Fold Enrichment relative to AAV9, DRG (NHP) [2, 5] [fold]	Fold Enrichment relative to AAV9, DRG (NHP) ([2]; NGS fold-enrichment, NHP DRG) [fold]	Fold Enrichment relative to AAV9, Heart (NHP) ([2]; NGS fold-enrichment, NHP heart) [fold]	Fold Enrichment relative to AAV9, Liver DNA (NHP) [2, 6] [fold]	Fold Enrichment relative to AAV9, Liver RNA (NHP) [2, 7] [fold]	Fold Enrichment relative to AAV9, Muscle (NHP) [2, 8] [fold]	Fold Enrichment relative to AAV9, Brain (NHP) [2, 9] [fold]	Fold Enrichment relative to AAV9, Heart (NHP) [2, 10] [fold]	Fold Enrichment relative to AAV9, Liver DNA (NHP) [2, 11] [fold]	Fold Enrichment relative to AAV9, Liver RNA (NHP) [2, 12] [fold]	Fold Enrichment relative to AAV9, Muscle (NHP) [2, 13] [fold]	Fold Enrichment relative to AAV9, Brain (Mouse) (brain [3]; [14]) [fold]	Fold Enrichment relative to AAV9, Brain (Mouse) (brain [3]; [15]) [fold]	further results
KIEGGHDSPHKSGQNQQT															Fold enrichment over TTM-002 (brain [1]): 2.00
KIEIGHDSPHKSGQNQQT															Fold enrichment over TTM-002 (brain [1]): 2.30
KIEMGHDSPHKSGQNQQT															Fold enrichment over TTM-002 (brain [1]): 2.05
KIENGHDSPHKSGQNQQT															Fold enrichment over TTM-002 (brain [1]): 2.19
KTVNGSGSPHSKTQSQQT	115.086	0.000	0.000	0.726	0.340	0.000	0.000	115.086	0.726	0.340	0.000	0.000	63.248	63.248	
KTVNRNGSPHSKAQNQQT	133.016	0.000	0.000	0.416	0.000	0.000	0.000	133.016	0.416	0.000	0.000	0.000	85.361	85.361	
KTVPNSGSPHSKAQNQQT		0.000						62.540	0.000	0.161	0.202	0.011	93.793		
KTVPTSGSPHSKAQNQQT															Fold Enrichment relative to AAV9, Brain (NHP) [2, 16]: 51.348 fold; Fold Enrichment relative to AAV9, DRG (NHP) ([2]; NHP DRG): 0.013 fold; Fold Enrichment relative to AAV9, Heart (NHP) ([2]; NHP heart): 0.000 fold; Fold Enrichment relative to AAV9, Liver DNA (NHP) ([2]; NHP liver, DNA): 0.338 fold; Fold Enrichment relative to AAV9, Liver RNA (NHP) ([2]; NHP liver, RNA): 1.017 fold; Fold Enrichment relative to AAV9, Muscle (NHP) ([2]; NHP muscle): 0.000 fold; Fold Enrichment relative to AAV9, Brain (Mouse) (brain [3]; mouse brain): 102.651 fold
KTVRDSGSPHSKAQNQQT		0.000						66.056	0.025	0.461	0.129	0.000	142.600		
KTWQNSGSPHSKAQNQQT															Fold Enrichment relative to AAV9, Brain (NHP) [2, 16]: 55.245 fold; Fold Enrichment relative to AAV9, DRG (NHP) ([2]; NHP DRG): 0.000 fold; Fold Enrichment relative to AAV9, Heart (NHP) ([2]; NHP heart): 0.000 fold; Fold Enrichment relative to AAV9, Liver DNA (NHP) ([2]; NHP liver, DNA): 0.265 fold; Fold Enrichment relative to AAV9, Liver RNA (NHP) ([2]; NHP liver, RNA): 0.111 fold; Fold Enrichment relative to AAV9, Muscle (NHP) ([2]; NHP muscle): 0.000 fold; Fold Enrichment relative to AAV9, Brain (Mouse) (brain [3]; mouse brain): 114.258 fold
KVINGHDSPHKSGQTQQT (peptide inserted in AAV capsid)	91.665		0.000	0.055	0.000	0.311	1.526							7.391	
KVINGSGSPHSKGQNQQT (peptide inserted in AAV capsid)		0.000						60.001	0.000	0.157	0.264	0.031	68.532		
NTINGSGSPHSKAQNQQT (peptide inserted in AAV capsid)	90.017	1.712	1.712	1.261	0.540	0.923	1.171	90.017	1.261	0.540	0.923	1.171	55.179	55.179	
NTIYGSGSPHSKAQNQQT (peptide inserted in AAV capsid)		1.739						71.267	0.000	0.209	0.000	273.69	59.707		
TTINGHDSPHKSGQNQQT (peptide inserted in AAV capsid)	108.963		1.512	3.445	1.109	0.659	0.869							14.788	
TTINGSGSPHSKAQNQQT (peptide inserted in AAV capsid)	114.856	1.340	1.340	14.856	0.957	1.281	0.827	114.856	14.856	0.957	1.281	0.827	72.058	72.058	
